Results: patent US20240352183A1, “CONDUCTIVE POLYMER WITH COVALENT CAPTURE ABILITY AND METHODS OF USING SAME” (Duke University, priority 2021, published 2024)

Experiment: Solubility of EDOT^PEGn-HTL monomer variants in various solvents
Format: physicochemical
Conditions: compared among three variants (n=1,2,3)
Excerpt: EDOT conjugates with HTL have not been reported previously. Initially a series of EDOT^PEGn-HTL monomers (n=1,2,3, . . . ) were synthesized, wherein it was anticipated that increasing the number of PEG repeats would improve solubility, at the risk of exacerbating sidechain steric interference (FIG. 2A). The HTL modification increases the molecular weight of the monomer. The unmodified EDOT has a molecular weight (MW) of […]; while EDOT^PEGn-HTL has a MW of 551 (n=1), 595 (n=2), 639 (n=3), or MW of 507+44×n. Thus, all of the candidate designs carry substantial steric bulk, which is inevitable.
Several conditions were tested, including various solvents, against the three variants. […] EDOT^PEG3-HTL was unable to be polymerized with PSS as the counter-ion. Specifically, whereas the formation of PEDOT:PSS is accompanied by an unmistakable darkening of a gold surface (i.e., the polymer is visible to the naked eye), no visual indication of polymerization was seen when EDOT was replaced with EDOT^PEG3-HTL (FIG. 3A and FIG. 3B). This held true over a wide range of voltage parameters and concentrations.

- solubility: most soluble
Compound: O=C(CCOCCOCCOCCNC(=O)COCC1COc2cscc2O1)NCCOCCOCCCCCCCl (stereo not shown) [EDOT^PEG3-HTL, N-(2-(2-((6-chlorohexyl)oxy)ethoxy)ethyl)-3-((1-(2,3-dihydrothieno[3,4-b][1,4]dioxin-2-yl)-4-oxo-2,8,11-trioxa-5-azatridecan-13-yl)oxy)propanamide]
